Measurements from US11440913B2, “Aminoimidazopyridazines as kinase inhibitors” (BRISTOL-MYERS SQUIBB COMPANY, priority 2017, dated 2022).
Counter-ions that a name gives are not always drawn. Like-named read-outs stand apart in the source and are kept apart here.

Key:
[1] = molecular target: His-GST-TVMV-hRIPK1(1-324) (Homo sapiens (Human), UniProt Q13546); experiment: RIPK1 HTRF Binding Assay; conditions: HTRF binding, 1 h at rt; read-out: RIPK1 (IC50)
Outline: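 HTRF probe-displacement binding: 1 nM His-GST-TVMV-hRIPK1(1-324) (baculovirus construct), 90.6 nM probe, 0.2 nM anti-GST-Tb in 20 mM HEPES, 10 mM MgCl2, 0.015% Brij-35, 4 mM DTT, 0.05 mg/mL BSA. Incubated 1 h at rt; FRET 520/495 nm ratio, inhibition relative to DMSO-only wells.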

[2] = tested on: MLKL phosphorylation in HT29-L23 human colorectal adenocarcinoma cells; experiment: MLKL Phosphorylation High-Content Assay; type: cell-based; conditions: 6 h, necroptosis induced with TNFα, SMAC mimetic and Z-VAD, read-out: pMLKL (IC50)
Outline: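 HT29-L23 cells pretreated 30 min at 37 °C with compound (6.25 to 0.106 μM final), then necroptosis induced with TNFα 35 ng/mL, SMAC mimetic 700 nM and Z-VAD 140 nM for 6 h. Fixed cells immunostained for MLKL pS358 and imaged; IC50 and Ymax from 4-parameter logistic fit.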

Chain of His-GST-TVMV-hRIPK1(1-324) (Q13546 1-324): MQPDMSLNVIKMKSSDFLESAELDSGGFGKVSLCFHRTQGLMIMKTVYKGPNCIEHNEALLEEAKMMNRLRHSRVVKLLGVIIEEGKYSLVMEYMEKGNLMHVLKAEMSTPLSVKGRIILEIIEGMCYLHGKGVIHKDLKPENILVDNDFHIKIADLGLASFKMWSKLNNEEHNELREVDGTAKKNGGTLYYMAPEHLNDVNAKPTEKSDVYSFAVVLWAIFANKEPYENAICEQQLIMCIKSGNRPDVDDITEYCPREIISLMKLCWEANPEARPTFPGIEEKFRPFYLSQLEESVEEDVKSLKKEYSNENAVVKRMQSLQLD

| Structure (SMILES) | IC50 [1] [nM] | IC50 ([2]; Homo sapiens) [nM] | IC50 [2] [nM] |
| --- | --- | --- | --- |
| COc1ncc(-c2ccc3nc(NC(C)=O)cn3n2)cc1C(=O)NCc1ccccc1OC(C)C [Example 165, 5-{2-acetamidoimidazo[1,2-b]pyridazin-6-yl}-2-methoxy-N-{[2-(propan-2-yloxy)phenyl]methyl}pyridine-3-carboxamide] | 4 | 11 | – |
| Cc1ncc(-c2ccc3nc(NC(=O)C(C)(C)C#N)cn3n2)cc1C(=O)N[C@H](C)c1cc(OC(F)(F)F)ccc1F [Example 27, 5-[2-(2-cyano-2,2-dimethylacetamido)imidazo[1,2-b]pyridazin-6-yl]-N-[(1R)-1-[2-fluoro-5-(trifluoromethoxy)phenyl]ethyl]-2-methylpyridine-3-carboxamide] | 109 | 108 | – |
| COc1ncc(-c2ccc3nc(NC(C)=O)cn3n2)cc1C(=O)NCCC(C)c1ccccc1 (stereo not shown) [Example 25, 5-{2-acetamidoimidazo[1,2-b]pyridazin-6-yl}-2-methoxy-N-(3-phenylbutyl)pyridine-3-carboxamide] | 2 | 9 | – |
| COc1nc(C)c(-c2ccc3nc(NC(C)=O)cn3n2)cc1C(=O)NCc1cc(F)cc(C(F)(F)F)c1 [Example 293, 5-{2-acetamidoimidazo[1,2-b]pyridazin-6-yl}-N-{[3-fluoro-5-(trifluoromethyl)phenyl]methyl}-2-methoxy-6-methylpyridine-3-carboxamide] | 33 | 135 | – |
| [2H]C([2H])(Oc1c(F)cc(F)cc1CNC(=O)c1cc(-c2ccc3nc(NC(=O)CC)cn3n2)cnc1OC)C1CC1 [Example 243, N-({2-[cyclopropyl(deutero)methoxy]-3,5-difluorophenyl}methyl)-2-methoxy-5-{2-propanamidoimidazo[1,2-b]pyridazin-6-yl}pyridine-3-carboxamide] | 2 | 3 | – |
| CC(=O)Nc1cn2nc(-c3cnc(C)c(C(=O)NC(C)c4ccccc4OC(F)(F)F)c3)ccc2n1 (stereo not shown) [Example 203, 5-{2-acetamidoimidazo[1,2-b]pyridazin-6-yl}-2-methyl-N-{1-[2-(trifluoromethoxy)phenyl]ethyl}pyridine-3-carboxamide] | > 5000 | – | > 6250 |
| [2H]C([2H])([2H])Oc1ncc(-c2ccc3nc(NC(C)=O)cn3n2)cc1C(=O)NC(C)c1cc(C(F)(F)F)ccc1F (stereo not shown) [Example 51, 5-{2-acetamidoimidazo[1,2-b]pyridazin-6-yl}-N-{1-[2-fluoro-5-(trifluoromethyl)phenyl]ethyl}-2-(D3)methoxypyridine-3-carboxamide] | 63 | 200 | – |
| CC(=O)Nc1cn2nc(-c3ccc(Cl)c(C(=O)NCc4cc(F)ccc4C(=O)N4CCC(F)(F)C4)c3)ccc2n1 [Example 387, 2-chloro-N-{[2-(3,3-difluoropyrrolidine-1-carbonyl)-5-fluorophenyl]methyl}-5-{2-acetamidoimidazo [1,2-b]pyridazin-6-yl}benzamide] | 8 | 5 | – |
| [2H]C([2H])([2H])Oc1nc(C)c(-c2ccc3nc(NC(C)=O)cn3n2)cc1C(=O)NCc1cccc(F)c1OC1C[C@@H](C)O[C@@H](C)C1 (stereo partly drawn) [Example 168, N-[(2-{[(2R,6S)-2,6-dimethyloxan-4-yl]oxy}-3-fluorophenyl)methyl]-5-{2-acetamidoimidazo[1,2-b]pyridazin-6-yl}-2-(deutero)methoxy-6-methylpyridine-3-carboxamide] | 21 | 67 | – |
| COc1nc(C)c(-c2ccc3nc(NC(C)=O)cn3n2)cc1C(=O)NC(C)c1cccc(OC(F)(F)F)c1 (stereo not shown) [Example 292, 5-{2-acetamidoimidazo[1,2-b]pyridazin-6-yl}-2-methoxy-6-methyl-N-{1-[3-(trifluoromethoxy)phenyl]ethyl}pyridine-3-carboxamide] | 24 | – | 37 |
| CC(=O)Nc1cn2nc(-c3cnc(Cl)c(C(=O)NC(C)c4ccccc4OC(F)(F)F)c3)ccc2n1 (stereo not shown) [Example 271, 2-chloro-5-{2-acetamidoimidazo[1,2-b]pyridazin-6-yl}-N-{1-[2-(trifluoromethoxy)phenyl]ethyl}pyridine-3-carboxamide] | 49 | – | 129 |
| CC(=O)Nc1cn2nc(-c3cnc(C(F)(F)F)c(C(=O)NCc4cc(OC(F)(F)F)ccc4F)c3)ccc2n1 [Example 18, 5-{2-acetamidoimidazo[1,2-b]pyridazin-6-yl}-N-{[2-fluoro-5-(trifluoromethoxy)phenyl]methyl}-2-(trifluoromethyl)pyridine-3-carboxamide] | 145 | 177 | – |
| [2H]C([2H])(Oc1c(F)cc(F)cc1CNC(=O)c1cc(-c2ccc3nc(NC(C)=O)cn3n2)cnc1Cl)C1CC1 [Example 266, 2-chloro-N-({2-[cyclopropyl(deutero)methoxy]-3,5-difluorophenyl}methyl)-5-{2-acetamidoimidazo[1,2-b]pyridazin-6-yl}pyridine-3-carboxamide, TFA] | 3 | 18 | – |
| CCC(=O)Nc1cn2nc(-c3cnc(OC)c(C(=O)NCc4ccccc4OC(F)(F)F)c3)ccc2n1 [Example 248, 2-methoxy-5-{2-propanamidoimidazo[1,2-b]pyridazin-6-yl}-N-{[2-(trifluoromethoxy)phenyl]methyl}pyridine-3-carboxamide, TFA] | 13 | 55 | – |
| CC(=O)Nc1cn2nc(-c3cnc(C)c(C(=O)NC(C)c4cc(C(F)(F)F)ccc4F)c3)ccc2n1 (stereo not shown) [Example 205, 5-{2-acetamidoimidazo[1,2-b]pyridazin-6-yl}-N-{1-[2-fluoro-5-(trifluoromethyl)phenyl]ethyl}-2-methylpyridine-3-carboxamide] | 27 | – | 74 |
| COc1nc(C)c(-c2ccc3nc(NC(C)=O)cn3n2)cc1C(=O)NCc1ccccc1OC1CCOC1 (stereo not shown) [Example 306, 5-{2-acetamidoimidazo[1,2-b]pyridazin-6-yl}-2-methoxy-6-methyl-N-{[2-(oxolan-3-yloxy)phenyl]methyl}pyridine-3-carboxamide] | 5 | 6 | – |
| COc1ncc(-c2ccc3nc(NC(C)=O)cn3n2)cc1C(=O)NCc1ccccc1OC(F)(F)F [Example 157, 5-{2-acetamidoimidazo[1,2-b]pyridazin-6-yl}-2-methoxy-N-{[2-(trifluoro-methoxy)phenyl]methyl}pyridine-3-carboxamide] | 17 | 93 | – |
| COc1ncc(-c2ccc3nc(NC(=O)CO)cn3n2)cc1C(=O)NCc1cc(C(F)(F)F)ccc1F [Example 34, N-{[2-fluoro-5-(trifluoromethyl)phenyl]methyl}-5-[2-(2-hydroxyacetamido)imidazo[1,2-b]pyridazin-6-yl]-2-methoxypyridine-3-carboxamide] | 96 | 215 | – |
| COc1ncc(-c2ccc3nc(NC(C)=O)cn3n2)cc1C(=O)NCc1cc(F)cc(F)c1OC1CCOC(C)C1 (stereo not shown) [Example 96, N-({3,5-difluoro-2-[(2-methyloxan-4-yl)oxy]phenyl}methyl)-5-{2-acetamidoimidazo[1,2-b]pyridazin-6-yl}-2-methoxypyridine-3-carboxamide] | 10 | 25 | – |
| CC(=O)Nc1cn2nc(-c3ccc(C)c(C(=O)NCc4cc(F)ccc4C(=O)N4CCCCC4)c3)ccc2n1 [Example 408, 5-{2-acetamidoimidazo [1,2-b]pyridazin-6-yl}-N-{[5-fluoro-2-(piperidine-1-carbonyl)phenyl]methyl}-2-methylbenzamide] | 8 | 8 | – |
| CC(=O)Nc1cn2nc(-c3cncc(C(=O)NCc4c(F)cccc4OC4CCCC4)c3)ccc2n1 [Example 240, N-{[2-(cyclopentyloxy)-6-fluorophenyl]methyl}-5-{2-acetamidoimidazo[1,2-b]pyridazin-6-yl}pyridine-3-carboxamide] | 5 | 8 | – |
| COc1ncc(-c2ccc3nc(NC(=O)CC#N)cn3n2)cc1C(=O)NCc1cc(F)cc(F)c1OCC1CC1 [Example 7, 5-[2-(2-cyanoacetamido)imidazo[1,2-b]pyridazin-6-yl]-N-{[2-(cyclopropylmethoxy)-3,5-difluorophenyl]methyl}-2-methoxypyridine-3-carboxamide] | 14 | 38 | – |
| CC(=O)Nc1nc2ccc(-c3cnc(C)c(C(=O)NCc4cccc(OC(F)(F)F)c4)c3)nn2c1C [Example 251, 5-{2-acetamido-3-methylimidazo[1,2-b]pyridazin-6-yl}-2-methyl-N-{[3-(trifluoromethoxy)phenyl]methyl}pyridine-3-carboxamide] | 53 | 305 | – |
| CC(=O)Nc1cn2nc(-c3cc(C(=O)NCc4cc(OC(F)(F)F)ccc4F)ccc3Cl)ccc2n1 [Example 431, 4-chloro-3-{2-acetamidoimidazo [1,2-b]pyridazin-6-yl}-N-{[2-fluoro-5-(trifluoromethoxy)phenyl]methyl} benzamide] | 7 | 91 | – |
| COc1nc(C)c(-c2ccc3nc(NC(C)=O)cn3n2)cc1C(=O)NC(C)c1ccccc1OC(F)(F)F (stereo not shown) [Example 290, 5-{2-acetamidoimidazo[1,2-b]pyridazin-6-yl}-2-methoxy-6-methyl-N-{1-[2-(trifluoromethoxy)phenyl]ethyl}pyridine-3-carboxamide] | 7 | – | 3 |
| CC(=O)Nc1cn2nc(-c3cnc(C)c(C(=O)NCc4cc(F)cc(F)c4OCC4CCC4)c3)ccc2n1 [Example 210, N-{[2-(cyclobutylmethoxy)-3,5-difluorophenyl]methyl}-5-{2-acetamidoimidazo[1,2-b]pyridazin-6-yl}-2-methylpyridine-3-carboxamide, TFA] | 3 | – | 5 |
